Results from ChEMBL document CHEMBL2021775, “Discovery of flavonoid derivatives as anti-HCV agents via pharmacophore search combining molecular docking strategy” (Eur J Med Chem, 2012).
The source made the active and inactive calls. The calls are words filed in the database; no cut-off is given here.

Columns and labels:
[1] = Cytotoxicity against human Huh7.5.1 cells by MTT assay; format: cell-based, Huh-7
Hepatitis C virus [2] = experiment: Antiviral activity against HCV JFH-1 J399EM infected in Human Huh7.5.1 cells assessed as suppression of viral replication at 50 uM after 72 hrs by EGFP assay; format: functional; conditions: for inhibition: Hepacivirus hominis, Huh-7; for inhibition at 50 µM: Huh-7, 72 h
Hepatitis C virus [3] = experiment: Antiviral activity against HCV JFH-1 J399EM infected in Human Huh7.5.1 cells assessed as suppression of viral replication after 72 hrs by EGFP assay; format: functional, organism-based, Hepacivirus hominis; conditions: Huh-7, 72 h
Hepatitis C virus [4] = experiment: Antiviral activity against HCV genotype 2a […] in Human Huh7.5.1 replicon cells assessed as suppression of viral replication after 72 hrs by luciferase reporter gene assay; format: functional, organism-based, Hepacivirus hominis; conditions: Huh-7, 72 h
Hepatitis C virus [5] = experiment: Inhibition of HCV 1b NS5B polymerase at 100 uM; set-up: species or system Hepatitis C virus subtype 1b
Hepatitis C virus [6] = experiment: Inhibition of HCV 1b NS5B polymerase; set-up: species or system Hepatitis C virus subtype 1b

| EC50 (Hepatitis C virus [3]) [µM] | SMILES | CC50 [1] [µM] | inhibition at 50 µM (Hepatitis C virus [2]) [%] | further results |
| --- | --- | --- | --- | --- |
| – | O=c1c(O)c(-c2cccc(O)c2O)oc2ccc(O)cc12 | > 50 | – | inhibition (Hepatitis C virus [2]): inactive |
| – | O=c1c(O)c(-c2cc(O)c(O)cc2O)oc2ccc(O)cc12 | > 50 | 31.1 | – |
| 12.7 | O=c1c(O)c(-c2ccc(O)cc2)oc2cccc(O)c12 | > 50 | – | – |
| 23.3 | O=c1cc(-c2ccc(O)c(O)c2)oc2c(O)c(O)ccc12 | > 50 | – | – |
| – | O=c1c(O)c(-c2ccccc2)oc2cccc(O)c12 | > 50 | 83.7 | – |
| – | O=c1cc(-c2ccccc2O)oc2c(O)c(O)ccc12 | > 50 | 51.9 | – |
| 38.5 | O=c1cc(-c2cc(O)c(O)c(O)c2)oc2cc(O)ccc12 | > 50 | – | – |
| – | O=c1c(O[C@H]2O[C@@H](CO)[C@@H](O)[C@@H](O)[C@@H]2O)c(-c2ccc(O)c(O)c2)oc2cc(O)cc(O)c12 | > 50 | – | inhibition (Hepatitis C virus [2]): inactive |
| – | O=c1cc(-c2ccc(O)c(-c3c(O)cc(O)c4c(=O)cc(-c5ccc(O)cc5)oc34)c2)oc2cc(O)cc(O)c12 [AMENTOFLAVONE] | > 50 | – | inhibition (Hepatitis C virus [2]): inactive |
| 7.9 | O=c1cc(-c2ccc(O)cc2)oc2cc(O)cc(O)c12 [APIGENIN] | > 50 | – | EC50 (Hepatitis C virus [4]): 12 µM |
| 33.9 | O=c1cc(-c2ccccc2)oc2cc(O)c(O)c(O)c12 [BAICALEIN] | > 50 | – | – |
| – | O=c1cc(-c2ccccc2)oc2cc(O)cc(O)c12 [CHRYSIN] | > 50 | 51 | inhibition at 100 µM (Hepatitis C virus [5]): 30% |
| 33.1 | COc1c(O)cc2oc(-c3ccc(O)c(O)c3)cc(=O)c2c1O [EUPAFOLIN] | > 50 | – | – |
| – | O=c1c(O)c(-c2ccc(O)c(O)c2)oc2cc(O)ccc12 [FISETIN] | > 50 | 26.4 | – |
| – | O=c1c(O)c(-c2ccccc2)oc2cc(O)cc(O)c12 [GALANGIN] | > 50 | 46.9 | – |
| – | O=c1cc(-c2ccc(O)c(O)c2)oc2cc(O[C@@H]3O[C@H](CO)[C@@H](O)[C@H](O)[C@H]3O)cc(O)c12 [GALUTEOLIN] | > 50 | – | inhibition (Hepatitis C virus [2]): inactive |
| 14.4 | O=c1c(-c2ccc(O)cc2)coc2cc(O)cc(O)c12 [GENISTEIN] | > 50 | – | – |
| 36.1 | O=C(/C=C/c1ccc(O)cc1)c1ccc(O)cc1O [ISOLIQUIRITIGENIN] | > 50 | – | – |
| – | O=c1cc(-c2ccc(O)c(O)c2)oc2cc(O)c([C@@H]3O[C@H](CO)[C@@H](O)[C@H](O)[C@H]3O)c(O)c12 [ISOORIENTIN] | > 50 | – | inhibition (Hepatitis C virus [2]): inactive |
| – | COc1cc(-c2oc3cc(O)cc(O)c3c(=O)c2O)ccc1O [ISORHAMNETIN] | > 50 | 47.3 | – |
| – | COc1ccc(-c2oc3cc(O)cc(O)c3c(=O)c2O)cc1 [KAEMPFERIDE] | > 50 | 27.6 | – |
| – | O=c1c(O)c(-c2ccc(O)cc2)oc2cc(O)cc(O)c12 [KAEMPFEROL] | > 50 | 51.9 | – |
| – | O=c1c(O)c(-c2ccc(O)cc2O)oc2cc(O)cc(O)c12 [MORIN] | > 50 | 31.1 | – |
| 46.9 | O=c1c(O)c(-c2cc(O)c(O)c(O)c2)oc2cc(O)cc(O)c12 [MYRICETIN] | > 50 | – | – |
| 32.2 | O=c1cc(-c2cc(O)c(O)c(O)c2)oc2cc(O)cc(O)c12 [TRICETIN] | > 50 | – | – |

| SMILES | EC50 (Hepatitis C virus [3]) [µM] | CC50 [1] [µM] | inhibition at 50 µM (Hepatitis C virus [2]) [%] | further results |
| --- | --- | --- | --- | --- |
| O=C1c2cccc(O)c2C(=O)c2c(O)cc(CO)cc21 [ALOE-EMODIN] | 20.8 | > 50 | – | – |
| O=c1c(O)c(-c2ccc(O)c(O)c2)oc2c(O)c(O)cc(O)c12 [GOSSYPETIN] | 47 | > 50 | – | – |
| COc1c(O)cc2oc(-c3ccc(O)cc3)cc(=O)c2c1O [HISPIDULIN] | 36.3 | > 50 | – | – |
| O=c1cc(-c2ccc(O)c(O)c2)oc2cc(O)cc(O)c12 [LUTEOLIN] | 4.7 | > 50 | – | IC50 (Hepatitis C virus [6]): 1.12 µM; EC50 (Hepatitis C virus [4]): 6.6 µM |
| O=c1c(O)c(-c2ccc(O)c(O)c2)oc2cc(O)cc(O)c12 [QUERCETIN] | 19.8 | > 50 | – | – |
| COc1cc(-c2oc3cc(O)cc(O)c3c(=O)c2O)cc(OC)c1O [SYRINGETIN] | 15.5 | > 50 | – | – |
